Patent US11702422B2, “Imidazopyridazines as modulators of IL-17” (Janssen Pharmaceutica NV, priority 2020, dated 2023)
pIC50: −log10 of the molar value.

Legend:
[1] = test system: IL-17A-induced G-CSF production in human normal keratinocyte (NHK); assay: NHK Assay: IL-17A-induced G-CSF production in human normal keratinocytes; assay type: cell-based; settings: 24 h, adult normal human keratinocytes, IL-17A 5 ng/mL, simple average if tested more than once
In short: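 Adult normal human keratinocytes were seeded at 3000-4000 cells/well. Recombinant human IL-17A was pre-incubated 1 h at rt with titrated compound, then added to cells (final 5 ng/mL IL-17A, 0.2% DMSO, 5% FBS) for 24 h at 37° C. Supernatant G-CSF was measured by HTRF against a standard curve to give IC50.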

[2] = biological target: IL-17A(FLAG-Tagged): IL-17RA(His-Tagged) (Homo sapiens, UniProt Q16552, K93Q); assay: IL-17A(FLAG-Tagged): IL-17RA(His-Tagged) Binding Disruption Eu-HTRF Assay; settings: IL-17A/IL-17RA binding disruption, simple average if tested more than once
In short: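 IC50 comes from a one-site competition fit of the HTRF 665/620 nm ratio. Compound dilutions (2-fold, 22 points) were held 1 h rt with FLAG-tagged IL-17A dimer, then His-tagged IL-17RA plus Eu-cryptate anti-FLAG and D2 anti-His antibodies were added for 2 h rt.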

Sequence of UniProt Q16552 (Q16552 with tags, fused parts or gaps K93Q): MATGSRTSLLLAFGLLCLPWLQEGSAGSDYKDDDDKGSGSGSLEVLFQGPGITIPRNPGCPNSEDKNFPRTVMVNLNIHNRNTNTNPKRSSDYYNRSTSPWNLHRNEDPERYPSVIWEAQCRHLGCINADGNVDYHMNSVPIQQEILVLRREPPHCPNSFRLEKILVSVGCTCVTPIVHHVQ

Compound | pIC50 [2] | pIC50 ([1]; Homo sapiens, Keratinocyte) | pIC50 [1]
O=C(CCC(F)(F)F)N[C@@H](c1cnn2cc([C@@H](NC(=O)c3cnnn3CC3CC(F)(F)C3(F)F)C3CCC(F)(F)CC3)nc2c1)C1CC1 (stereo partly drawn) [Example 94, N—((S)-(7-((R)-Cyclopropyl(4,4,4-trifluorobutanamido)methyl)imidazo[1,2-b]pyridazin-2-yl)(4,4-difluorocyclohexyl)methyl)-1-((2,2,3,3-tetrafluorocyclobutyl)methyl)-1H-1,2,3-triazole-5-carboxamide] | 6.96 | 6.82 | –
CC1(C)CC1C(=O)N[C@H](c1cn2ncc([C@H](NC(=O)CCC(F)(F)F)C3CC3)cc2n1)C1CCC(F)(F)CC1 (stereo partly drawn) [Example 62, N—((S)-(7-((R)-Cyclopropyl(4,4,4-trifluorobutanamido)methyl)imidazo[1,2-b]pyridazin-2-yl)(4,4-difluorocyclohexyl)methyl)-2,2-dimethylcyclopropane-1-carboxamide] | 6.08 | ~5.40 | –
N#CC1(C(NC(=O)CC2CC(F)(F)C2)c2cnn3cc([C@@H](NC(=O)c4nonc4OCC(F)F)C4CCC(F)(F)CC4)nc3c2)CC1 (single isomer, unassigned) [Example 425, N—((S)-(7-((S*)-(1-Cyanocyclopropyl)(2-(3,3-difluorocyclobutyl)acetamido)methyl)imidazo[1,2-b]pyridazin-2-yl)(4,4-difluorocyclohexyl)methyl)-4-(2,2-difluoroethoxy)-1,2,5-oxadiazole-3-carboxamide] | 7.00 | – | 7.70
CC(C)n1nccc1C(=O)N[C@H](c1cn2ncc(C(NC(=O)CC3(C(F)(F)F)CC3)C3(C#N)CC3)cc2n1)C1CCC(F)(F)CC1 (single isomer, unassigned) [Example 428, N—((S)-(7-((S*)-(1-Cyanocyclopropyl)(2-(1-(trifluoromethyl)cyclopropyl)acetamido)methyl)imidazo[1,2-b]pyridazin-2-yl)(4,4-difluorocyclohexyl)methyl)-1-isopropyl-1H-pyrazole-5-carboxamide] | 6.43 | – | 6.92
O=C(CCC(F)F)N[C@@H](c1cnn2cc([C@@H](NC(=O)c3nonc3OCC(F)F)C3CCC(F)(F)CC3)nc2c1)C1CC1 [Example 390, N—((S)-(7-((R)-Cyclopropyl(4,4-difluorobutanamido)methyl)imidazo[1,2-b]pyridazin-2-yl)(4,4-difluorocyclohexyl)methyl)-4-(2,2-difluoroethoxy)-1,2,5-oxadiazole-3-carboxamide] | 7.07 | 6.89 | –
CC(C)n1nccc1C(=O)N[C@H](c1cn2ncc(C(CC3CCC3)NC(=O)CC3CC(F)(F)C3)cc2n1)C1CCC(F)(F)CC1 (single isomer, unassigned) [Example 440, N—((S)-(7-((R*)-2-Cyclobutyl-1-(2-(3,3-difluorocyclobutyl)acetamido)ethyl)imidazo[1,2-b]pyridazin-2-yl)(4,4-difluorocyclohexyl)methyl)-1-isopropyl-1H-pyrazole-5-carboxamide] | 7.04 | – | 7.23
CC(C)n1nccc1C(=O)N[C@H](c1cn2ncc([C@H](NC(=O)C[C@](C)(O)C(F)(F)F)C3CC3)cc2n1)C1CCC(F)(F)CC1 (relative stereo) [Example 133, N—((S)-(7-((R*)-Cyclopropyl((S*)-4,4,4-trifluoro-3-hydroxy-3-methylbutanamido)methyl)imidazo[1,2-b]pyridazin-2-yl)(4,4-difluorocyclohexyl)methyl)-1-isopropyl-1H-pyrazole-5-carboxamide] | 6.82 | 6.44 | –
[2H]C([2H])([2H])n1nccc1C(=O)N[C@H](c1cn2ncc(C(NC(=O)CCC(F)(F)F)C3CCC3)cc2n1)C1CCC(F)(F)CC1 (single isomer, unassigned) [Example 492, N—((S)-(7-((R*)-Cyclobutyl(4,4,4-trifluorobutanamido)methyl)imidazo[1,2-b]pyridazin-2-yl)(4,4-difluorocyclohexyl)methyl)-1-(methyl-d3)-1H-pyrazole-5-carboxamide] | 7.19 | 7.02 | –
CC(C)n1nnc(C(=O)N[C@H](c2cn3ncc([C@H](NC(=O)CCC(F)(F)F)C4CC4)cc3n2)C2CCC(F)(F)CC2)n1 [Example 484, N—[(S)-[7-[(R)-Cyclopropyl-(4,4,4-trifluorobutanamido)methyl]imidazo[1,2-b]pyridazin-2-yl]-(4,4-difluorocyclohexyl)methyl]-2-isopropyl-tetrazole-5-carboxamide] | 6.26 | 5.34 | –
O=C(CCC(F)(F)F)NC(c1cnn2cc(C(NC(=O)c3ncnn3CC3CC3(F)F)C3CCC(F)(F)CC3)nc2c1)C1CC1 [Example 475, N—((R)-(7-((S)-Cyclopropyl(4,4,4-trifluorobutanamido)methyl)imidazo[1,2-b]pyridazin-2-yl)(4,4-difluorocyclohexyl)methyl)-1-((2,2-difluorocyclopropyl)methyl)-1H-1,2,4-triazole-5-carboxamide] | 6.89 | 6.48 | –

The remaining compounds from weak to strong by pIC50 [2], led by results:

pIC50 [2] | Compound | pIC50 ([1]; Homo sapiens, Keratinocyte) | pIC50 [1]
6.04 | COc1cc(C(=O)N[C@H](c2cn3ncc([C@H](NC(=O)CCC(F)(F)F)C4CC4)cc3n2)C2CCC(F)(F)CC2)ncn1 [Example 465, N—((S)-(7-((R)-Cyclopropyl(4,4,4-trifluorobutanamido)methyl)imidazo[1,2-b]pyridazin-2-yl)(4,4-difluorocyclohexyl)methyl)-6-methoxypyrimidine-4-carboxamide] | 5.80 | –
6.18 | CCC(NC(=O)CC1CC(F)(F)C1)c1cnn2cc([C@@H](NC(=O)c3ccnn3C(C)C)C3CCC(F)(F)CC3)nc2c1 (single isomer, unassigned) [Example 520, N—((S)-(7-((S*)-1-(2-(3,3-Difluorocyclobutyl)acetamido)propyl)imidazo[1,2-b]pyridazin-2-yl)(4,4-difluorocyclohexyl)methyl)-1-isopropyl-1H-pyrazole-5-carboxamide] | 5.30 | –
6.35 | O=C(CCC(F)(F)F)N[C@@H](c1cnn2cc([C@@H](NC(=O)[C@@H]3C[C@@H]3C(F)F)C3CCC(F)(F)CC3)nc2c1)C1CC1 (relative stereo) [Example 358, (1R*,2S*)—N—((S)-(7-((R*)-Cyclopropyl(4,4,4-trifluorobutanamido)methyl)imidazo[1,2-b]pyridazin-2-yl)(4,4-difluorocyclohexyl)methyl)-2-(difluoromethyl)cyclopropane-1-carboxamide] | 5.68 | –
6.40 | CC(C)n1nccc1C(=O)N[C@H](c1cn2ncc(C(NC(=O)CC(C)(C)O)C3CC3)cc2n1)C1CCC(F)(F)CC1 (single isomer, unassigned) [Example 136, N—((S)-(7-((R*)-Cyclopropyl(3-hydroxy-3-methylbutanamido)methyl)imidazo[1,2-b]pyridazin-2-yl)(4,4-difluorocyclohexyl)methyl)-1-isopropyl-1H-pyrazole-5-carboxamide] | – | 6.10
6.66 | CC(C)Oc1nocc1C(=O)N[C@H](c1cn2ncc([C@H](NC(=O)CCC(F)(F)F)C3CC3)cc2n1)C1CCC(F)(F)CC1 [Example 284, N—((S)-(7-((R)-Cyclopropyl(4,4,4-trifluorobutanamido)methyl)imidazo[1,2-b]pyridazin-2-yl)(4,4-difluorocyclohexyl)methyl)-3-isopropoxyisoxazole-4-carboxamide] | 6.04 | –
6.89 | CC(C)C(NC(=O)CCC(F)(F)F)c1cnn2cc([C@@H](NC(=O)c3ccnn3C(C)C)C3CCC(F)(F)CC3)nc2c1 (single isomer, unassigned) [Example 155, N—((S)-(4,4-Difluorocyclohexyl)(7-((S*)-2-methyl-1-(4,4,4-trifluorobutanamido)propyl)imidazo[1,2-b]pyridazin-2-yl)methyl)-1-isopropyl-1H-pyrazole-5-carboxamide] | – | 7.28
6.92 | O=C(CCC(F)(F)F)N[C@@H](c1cnn2cc([C@@H](NC(=O)c3cccc(N4CCCC4=O)c3)C3CCC(F)(F)CC3)nc2c1)C1CC1 [Example 163, N—((S)-(7-((R)-Cyclopropyl(4,4,4-trifluorobutanamido)methyl)imidazo[1,2-b]pyridazin-2-yl)(4,4-difluorocyclohexyl)methyl)-3-(2-oxopyrrolidin-1-yl)benzamide] | 7.00 | –
7.00 | Cc1oncc1C(=O)N[C@H](c1cn2ncc([C@H](NC(=O)CCC(F)(F)F)C3CC3)cc2n1)C1CCC(F)(F)CC1 [Example 159, N—((S)-(7-((R)-Cyclopropyl(4,4,4-trifluorobutanamido)methyl)imidazo[1,2-b]pyridazin-2-yl)(4,4-difluorocyclohexyl)methyl)-5-methylisoxazole-4-carboxamide] | 6.59 | –
7.10 | O=C(CCC(F)(F)F)N[C@@H](c1cnn2cc([C@@H](NC(=O)c3cnoc3C3CC3)C3CCC(F)(F)CC3)nc2c1)C1CC1 [Example 84, 5-Cyclopropyl-N—((S)-(7-((R)-cyclopropyl(4,4,4-trifluorobutanamido)methyl)imidazo[1,2-b]pyridazin-2-yl)(4,4-difluorocyclohexyl)methyl)isoxazole-4-carboxamide] | 6.80 | –
7.10 | Cc1nonc1C(=O)N[C@H](c1cn2ncc(C(NC(=O)CC3CC(F)(F)C3)C3CCC3)cc2n1)C1CCC(F)(F)CC1 (single isomer, unassigned) [Example 493, N—((S)-(7-((R*)-Cyclobutyl(2-(3,3-difluorocyclobutyl)acetamido)methyl)imidazo[1,2-b]pyridazin-2-yl)(4,4-difluorocyclohexyl)methyl)-4-methyl-1,2,5-oxadiazole-3-carboxamide] | – | 6.92
